These results are taken from US7456164B2, “3- or 4-monosubtituted phenol and thiophenol derivatives useful as H3 ligands” (Pfizer, Inc, priority 2004, dated 2008).

In general, Ki refers to the dissociation constant of the complex between target and ligand, obtained from inhibition or displacement.

The target of one assay is T1, human histamine H3 receptor (Homo sapiens, UniProt Q9Y5N1).
T1 construct: expressed in transfected cells
T1 sequence (Q9Y5N1 whole entry): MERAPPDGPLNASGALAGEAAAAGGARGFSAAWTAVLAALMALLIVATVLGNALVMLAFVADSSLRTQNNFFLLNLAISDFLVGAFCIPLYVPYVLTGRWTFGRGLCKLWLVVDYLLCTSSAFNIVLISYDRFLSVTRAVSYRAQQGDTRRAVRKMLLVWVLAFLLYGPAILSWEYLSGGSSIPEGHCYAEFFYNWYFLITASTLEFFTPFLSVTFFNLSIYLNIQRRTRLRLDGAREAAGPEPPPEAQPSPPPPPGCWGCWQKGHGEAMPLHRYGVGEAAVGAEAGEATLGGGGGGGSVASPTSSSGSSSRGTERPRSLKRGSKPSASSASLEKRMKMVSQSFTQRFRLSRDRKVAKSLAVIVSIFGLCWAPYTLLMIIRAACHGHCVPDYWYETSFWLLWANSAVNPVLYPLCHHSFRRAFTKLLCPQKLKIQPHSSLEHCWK
The experiment in a line: H3 cell based functional assay (cAMP, β-lactamase reporter gene).
Conditions: not given
The method, then: Compounds were evaluated using a cell based functional assay measuring cAMP through β-lactamase reporter gene activity. A stable cell line was generated from HEK-293 cells expressing a CRE β-lactamase reporter gene and transfected with human histamine H3 receptor cDNA. Cells were seeded at a density of 500,000 cells/ml, and grown overnight in MEM (Invitrogen) supplemented with 1% dialysed FBS (Sigma), 2 mM glutamine (Sigma), 1 mM sodium pyruvate (Sigma), 0.1 mM non essential amino acids (Invitrogen) and 25 mM HEPES (Sigma) in poly D lysine coated 384 well plates (BD Biosciences). […] Cells were incubated for 15 minutes plus/minus compound and their ability to permit 10 μM forskolin-stimulated cAMP synthesis in the presence of 1 nM imetit was measured as described above.
Turning to `CC(C)N1CCC(Oc2ccc(C3(CNc4ccnnc4)CCOCC3)cc2)CC1` [Example 267, N-[(4-{4-[(1-isopropylpiperidin-4-yl)oxy]phenyl}tetrahydro-2H-pyran-4-yl)methyl]pyridazin-4-amine], affinity was put at a Ki of 5.8 nM.

Still in this assay, the particulars now being: functional Ki from IC50 by Cheng-Prussoff; HEK-293 CRE β-lactamase cells, 10 μM forskolin, 1 nM imetit; read-out: Ki (H3 cell based assay - nM).
As for `CN(C)C(=O)C1(c2ccc(OCCCN3CCCC3)cc2)CCOCC1` [Example 191, N,N-dimethyl-4-[4-(3-pyrrolidin-1-ylpropoxy)-phenyl]tetrahydro-2H-pyran-4-carboxamide], the Ki was 10.3 nM.
Still for that read-out and setting: for `c1ccc(C2(c3ccc(OCCCN4CCCC4)cc3)CCOCC2)nc1` [Example 205, 2-{4-[4-(3-pyrrolidin-1-ylpropoxy)phenyl]tetrahydro-2H-pyran-4-yl}-pyridine] the value was 5.8 nM; for `c1cc2c(cn1)ncn2CC1(c2ccc(OCCCN3CCCC3)cc2)CCOCC1` [Example 247, 1-({4-[4-(3-pyrrolidin-1-ylpropoxy)phenyl]tetrahydro-2H-pyran-4-yl}methyl)-1H-imidazo[4,5-c]pyridine], 3.9 nM; for `Cc1csc(C2(c3ccc(OCCCN4CCCC4)cc3)CCOCC2)n1` [Example 136, 4-methyl-2-[4-(4-(3-pyrrolidin-1-ylpropoxy)phenyl)tetrahydro-2H-pyran-4-yl]-1,3-thiazole], 3.9 nM.
The same measure, in the same setting: for `O=C(N1CCC1)C1(c2ccc(OCCCN3CCCC3)cc2)CCOCC1` [Example 189, 1-(3-{4-[4-(azetidin-1-ylcarbonyl)tetrahydro-2H-pyran-4-yl]phenoxy}propyl)pyrrolidine] the value was 14.3 nM.
`CC(C)N1CCC(Oc2ccc(C3(C(=O)N(C)C)CCOCC3)cc2)CC1` [Example 133, 4-{4-[(1-isopropylpiperidin-4-yl)oxy]phenyl}-N,N-dimethyltetrahydro-2H-pyran-4-carboxamide]: the Ki amounted to 12.4 nM.
With `c1cc(NCC2(c3ccc(OCCCN4CCCC4)cc3)CCOCC2)cnn1` [Example 250, N-({4-[4-(3-pyrrolidin-1-ylpropoxy)phenyl]tetrahydro-2H-pyran-4-yl}methyl)pyridazin-4-amine], the Ki was determined as 4.6 nM.
The same measure, in the same setting: the result for `c1cc(C2(Cn3cnnc3)CCOCC2)ccc1OCCCN1CCCC1` [Example 272, 4-({4-[4-(3-pyrrolidin-1-ylpropoxy)phenyl]tetrahydro-2H-pyran-4-yl}methyl)-4H-1,2,4-triazole] reads 10.8 nM.
The same measure, in the same setting: for `CC(C)N1CC(COc2ccc(C3(CN4CCOCC4)CCOCC3)cc2)C1` [Example 220, 4-[(4-{4-[(1-isopropylazetidin-3-yl)methoxy]phenyl}tetrahydro-2H-pyran-4-yl)methyl]morpholine] the value was 2.2 nM.
Same read-out and setting: the result for `O=C(N1CCCC1)C1(c2ccc(OCCCN3CCCC3)cc2)CCOCC1` [Example 187, 1-(3-{4-[4-(pyrrolidin-1-ylcarbonyl)tetrahydro-2H-pyran-4-yl]phenoxy}propyl)pyrrolidine] reads 7.3 nM.
For the compound `CN(C)CC1(c2ccc(OCCCN3CCCC3)cc2)CCOCC1` [Example 29, Dimethyl-{4-[4-(3-pyrrolidin-1-ylpropoxy)phenyl]-tetrahydro-pyran-4-ylmethyl}amine], the Ki worked out at 0.4 nM.
As for `CNCC1(c2ccc(OCCCN3CCOCC3)cc2)CCOCC1` [Example 254, N-methyl-1-{4-[4-(3-morpholin-4-ylpropoxy)phenyl]tetrahydro-2H-pyran-4-yl}methanamine], the inhibition constant (Ki) was determined as 1.3 nM.
For `c1ccc2c(c1)ncn2CC1(c2ccc(OCCCN3CCCC3)cc2)CCOCC1` [Example 196], the Ki came to 0.6 nM.
`CCNC(=O)C1(c2ccc(OC3CCN(C4CCC4)CC3)cc2)CCOCC1` [Example 160, 4-{4-[(1-cyclobutylpiperidin-4-yl)oxy]phenyl}-N-ethyltetrahydro-2H-pyran-4-carboxamide]: the Ki was found to be 1.5 nM.
In the case of `c1cnc2ncn(CC3(c4ccc(OCCCN5CCCC5)cc4)CCOCC3)c2c1` [Example 249, 1-({4-[4-(3-pyrrolidin-1-ylpropoxy)phenyl]tetrahydro-2H-pyran-4-yl}methyl)-1H-imidazo[4,5-b]pyridine], the inhibition constant (Ki) was found to be 9.7 nM.
On the same count and under the same terms, for `O=C(N1CCCCC1)C1(c2ccc(OCCCN3CCCC3)cc2)CCOCC1` [Example 188, 1-({4-[4-(3-pyrrolidin-1-ylpropoxy)phenyl]-tetrahydro-2H-pyran-4-yl}carbonyl)piperidine] the value was 6.8 nM.
The same measure, in the same setting: the result for `CNC(=O)C1(c2ccc(OC3CCN(C4CCC4)CC3)cc2)CCOCC1` [Example 156, 4-{4-[(1-cyclobutylpiperidin-4-yl)oxy]phenyl}-N-methyltetrahydro-2H-pyran-4-carboxamide] reads 2 nM; that for `c1cnc2c(c1)ncn2CC1(c2ccc(OCCCN3CCCC3)cc2)CCOCC1` [Example 248, 3-({4-[4-(3-pyrrolidin-1-ylpropoxy)phenyl]tetrahydro-2H-pyran-4-yl}methyl)-3H-imidazo[4,5-b]pyridine], 0.3 nM; that for `c1cc(C2(c3ccc(OCCCN4CCCC4)cc3)CCOCC2)ncn1` [Example 276, 4-{4-[4-(3-pyrrolidin-1-ylpropoxy)phenyl]tetrahydro-2H-pyran-4-yl}pyrimidine], 6.2 nM.
On the same count and under the same terms, for `c1ncc(C2(c3ccc(OCCCN4CCCC4)cc3)CCOCC2)o1` [Example 206, 5-{4-[4-(3-pyrrolidin-1-ylpropoxy)phenyl]tetrahydro-2H-pyran-4-yl}-1,3-oxazole] the value was 12.9 nM; for `CN(C)C(=O)C1(c2ccc(OC3CCN(C4CCC4)CC3)cc2)CCOCC1` [Example 155, 4-{4-[(1-cyclobutylpiperidin-4-yl)oxy]phenyl}-N,N-dimethyltetrahydro-2H-pyran-4-carboxamide], 1 nM; for `c1c[nH]c(C2(c3ccc(OCCCN4CCCC4)cc3)CCOCC2)n1` [Example 266, 2-{4-[4-(3-pyrrolidin-1-ylpropoxy)phenyl]tetrahydro-2H-pyran-4-yl}-1H-imidazole], 9.7 nM.
Consider `c1cc(C2(CN3CCOCC3)CCOCC2)ccc1OCCCN1CCCOCC1` [Example 268, 4-(3-{4-[4-(morpholin-4-ylmethyl)tetrahydro-2H-pyran-4-yl]phenoxy}propyl)-1,4-oxazepane], for which the inhibitory constant (Ki) is 6.5 nM.
Regarding `CCN(C)C(=O)C1(c2ccc(OCCCN3CCCC3)cc2)CCOCC1` [Example 190, N-ethyl-N-methyl-4-[4-(3-pyrrolidin-1-ylpropoxy)phenyl]tetrahydro-2H-pyran-4-carboxamide], the inhibition constant Ki came out at 2.4 nM.
In the case of `CN(C)CC1(c2ccc(OCCCN3CCOCC3)cc2)CCOCC1` [Example 213, N,N-dimethyl-1-{4-[4-(3-morpholin-4-ylpropoxy)phenyl]tetrahydro-2H-pyran-4-yl}methanamine], the inhibition constant (Ki) was 2.6 nM.
